According to paper PMC7509492, “To What Extent Do Fluorophores Bias the Biological Activity of Peptides? A Practical Approach Using Membrane-Active Peptides as Models” (Frontiers in Bioengineering and Biotechnology, 2020):
Ends that are not written are not given here. Peptide text beside a SMILES is read from it. * marks the point of attachment. RhodamineB = CCN(CC)c1ccc2c(-c3ccccc3C(=O)*)c3ccc(=[N+](CC)CC)cc-3oc2c1; X1 = CC[N+]1=C(C=CC=C2N(CCCCCC(=O)*)c3ccccc3C2(C)C)C(C)(C)c2ccccc21; 5FAM = O=C1OC2(c3ccc(O)cc3Oc3cc(O)ccc32)c2ccc(C(=O)*)cc21

What was measured:
MDA-MB-231 cells = experiment: CellTiter-Blue cell viability assay, MDA-MB-231; format: cell-based, human; conditions: peptide 0.01-100 μM, mean ± SD, triplicates of three independent experiments; for IC50: Table 1, 24 h, read-out: Cytotoxicity MDA-MB-231 cells IC50; for Cytotoxicity MDA-MB-231 cells IC10: Table 1, concentration causing 10% cell death; for Cytotoxicity MDA-MB-231 cells IC10 / IC90: 24 h; for IC90: Table 1, concentration causing 90% cell death, read-out: Cytotoxicity MDA-MB-231 cells IC90
Procedure: (§1) Peptides cytotoxicity against both HBEC-5i and MDA-MB-231 cells was determined using CellTiter-Blue® Cell Viability Assay, according to the manufacturer’s instructions. The assay is based on the ability of viable cells to reduce resazurin into resorufin, a highly fluorescent metabolite. […] Therefore, using this methodology is possible to distinguish between metabolic and non-metabolic cells and indirectly determine the cytotoxicity of peptides. Briefly, HBEC-5i and MDA-MB-231 cells were carefully detached from T-flasks, as described previously, and seeded 15,000/100 and 10,000/100 μL, respectively, in 96-well plates (Corning, United States) and incubated for 24 h. After medium removal, cells were washed two times with 1× PBS and 100 μL of previously diluted peptides (range between 0.01 and 100 μM) in either DMEM or DMEM:F12 medium were added to MDA-MB-231 or HBEC-5i cells, respectively. After 24 h incubation, cells were washed two times with 1× PBS, and 20 μL of CellTiter-Blue® Reagent (diluted in 100 μL of medium) was added to each well and incubated for 3 h in a humidified atmosphere of 5% CO2 at 37°C. The fluorescence intensity was measured at λ with an excitation of 560 nm and maximum emission at 590 nm using the infinite F200 TECAN plate reader. Medium and 1% Triton X-100-containing medium were used as positive controls (100% cell viability) and negative controls (0% cell viability), respectively. Cell viability (%) was determined using the following equation:
(§2) (7) CellViability=FP-FNC/FPC-FNC×100
(§3) Fp is the fluorescence intensity of peptide-treated cells, FNC is the fluorescence intensity for negative controls, and FPC is the fluorescence intensity for positive controls.
(§4) Experiments were performed on different days using independently grown cell cultures.
(§5) FIGURE 4 In vitro cytotoxicity unlabeled- and labeled-peptides. (A,B) Cytotoxicity against HBEC-5i cells. (C,D) Cytotoxicity against MDA-MB-231 cells. 1.5 × 10^4 and 1.0 × 10^4 cells of HBEC-5i and MDA-MB-231 cells, respectively, were incubated with various concentrations of peptides (range from 0.01 to 100 μM). The percentage of viability was determined using CellTiter® Blue reagent assay. […] Error bars, S.D.

human RBCs = experiment: Hemolytic activity on human red blood cells; conditions: Table 1, human RBCs in 1x PBS pH 7.4, 24 h, 37°C, peptide 0.01-100 μM, mean ± SD, triplicates of three independent experiments; for Hemolytic activity HC10: concentration causing 10% hemolysis, hemoglobin absorbance 570 nm; for Hemolytic activity HC50: concentration causing 50% hemolysis; for Hemolytic activity HC50 / Hemolytic activity HC90: absorbance 570 nm; for Hemolytic activity HC90: concentration causing 90% hemolysis
Procedure: Fresh human blood was collected in EDTA tubes and centrifuged at 1,000 × g for 10 min at 4°C. The supernatant was discharged, and the pellet containing RBCs was washed three times with 1× PBS (137 mM NaCl, 2.7 mM KCl, 10 mM Na2HPO4, and 1.8 mM KH2PO4, pH 7.4) and resuspended in 1× PBS to obtain a 2.0% (v/v) suspension. Then, RBCs were added to centrifuge tubes containing two-fold serially diluted peptides to a final concentration ranging from 0.01 to 100 μM. The suspension was incubated for 24 h at 37°C with gentle stirring. After that, samples were centrifuged for 2 min at 1,000 × g. Supernatants were transferred to 96-well plates, and the hemoglobin released measured by absorbance at 570 nm in an Infinite F200 TECAN plate reader. 1× PBS with no peptides and Triton X-100 at 1 and 4% (v/v) were used as negative and positive controls, respectively. Hemolytic activity (%) was determined using the following equation:
(2) Hemolyticactivity(%)=AbsPT-AbsNC/AbsPC-AbsNC
where, AbsPT is the absorbance of treated samples, AbsNC is the absorbance from negative control, and AbsPC absorbance from positive control.
HC50 values were determined using the GraphPad Prism 7.0 software using a log(inhibitor) vs. normalized response. Experiments were performed on different days using independent blood donors.
(range from 0.01 to 100 μM). The percentage of hemolysis was determined by the absorbance of hemoglobin released into the supernatant. Melittin was included as a control peptide with hemolytic properties. The values were obtained from triplicates of three independent experiments. Error bars, S.D.

[1] = CellTiter-Blue cell viability assay, MDA-MB-231; format: cell-based, human; conditions: human, MDA-MB-231 cells, mean ± SD, triplicates of three independent experiments; for IC90 at 24 h: Table 1, concentration causing 90% cell death, peptide 0.01-100 μM, read-out: Cytotoxicity MDA-MB-231 cells IC90; for IC50 at 24 h: Table 1, peptide 0.01-100 μM, read-out: Cytotoxicity MDA-MB-231 cells IC50
Procedure: as §1, §2, §3, §4, §5

Row | Compound | IC50 (MDA-MB-231 cells) [µM] | Cytotoxicity MDA-MB-231 cells IC10 (MDA-MB-231 cells) [µM] | IC90 (MDA-MB-231 cells) [µM] | Hemolytic activity HC10 (human RBCs) [µM] | Hemolytic activity HC50 (human RBCs) [µM] | Hemolytic activity HC90 (human RBCs) [µM] | IC90 at 24 h [1] [µM] | IC50 at 24 h [1] [µM]
1 | TF3-WRRRYRRWRRRRRWRRRPRR-amide [TF3-vCPP2319] | 4.3 ± 0.03 | 1.05 ± 0.21 | 17 ± 1.58 | 2.83 ± 0.97 | >200 | >200 |  | 
2 | WRRRYRRWRRRRRWRRRPRR-NH2 [vCPP2319] |  | 1.22 ± 0.52 |  | >200 | >200 | >200 | 20.6 ± 2.1 | 5.02 ± 1.04
3 | CC[C@H](C)[C@H](NC(=O)[C@H](CCCCN)NC(=O)[C@H](CCCCN)NC(=O)[C@H](CC(C)C)NC(=O)[C@H](CCCNC(=N)N)NC(=O)[C@H](CCCCN)NC(=O)[C@H](CCCCN)NC(=O)c1ccccc1-c1c2ccc(=[N+](CC)CC)cc-2oc2cc(N(CC)CC)ccc12)C(=O)N[C@@H](Cc1ccccc1)C(=O)N[C@@H](CCCCN)C(=O)N[C@@H](CCCCN)C(=O)N1CCC[C@H]1C(=O)N[C@@H](CCSC)C(=O)N[C@H](C(=O)N[C@H](C(=O)NCC(=O)N[C@H](C(=O)N[C@H](C(=O)N[C@H](C(=O)N1CCC[C@H]1C(=O)N[C@@H](Cc1ccccc1)C(N)=O)[C@@H](C)CC)[C@@H](C)O)C(C)C)[C@@H](C)CC)C(C)C [RhB-Ctn[15-34]] (RhodamineB-KKRLKKIFKKPMVIGVTIPF-NH2) |  | 2.97 ± 0.98 |  | 3.29 ± 1.32 | 61.43 ± 4.33 | >200 | > 200 | > 200
4 | N=C(N)NCCC[C@H](NC(=O)[C@H](CCCNC(=N)N)NC(=O)[C@@H]1CCCN1C(=O)[C@H](CCCNC(=N)N)NC(=O)[C@H](CCCNC(=N)N)NC(=O)[C@H](CCCNC(=N)N)NC(=O)[C@H](Cc1c[nH]c2ccccc12)NC(=O)[C@H](CCCNC(=N)N)NC(=O)[C@H](CCCNC(=N)N)NC(=O)[C@H](CCCNC(=N)N)NC(=O)[C@H](CCCNC(=N)N)NC(=O)[C@H](CCCNC(=N)N)NC(=O)[C@H](Cc1c[nH]c2ccccc12)NC(=O)[C@H](CCCNC(=N)N)NC(=O)[C@H](CCCNC(=N)N)NC(=O)[C@H](Cc1ccc(O)cc1)NC(=O)[C@H](CCCNC(=N)N)NC(=O)[C@H](CCCNC(=N)N)NC(=O)[C@H](CCCNC(=N)N)NC(=O)[C@H](Cc1c[nH]c2ccccc12)NC(=O)c1ccc2c(c1)C(=O)OC21c2ccc(O)cc2Oc2cc(O)ccc21)C(N)=O [CF-vCPP2319] (5FAM-WRRRYRRWRRRRRWRRRPRR-NH2) |  | 1.26 ± 0.24 |  | >200 | >200 | >200 | 18.8 ± 1.87 | 4.72 ± 0.94
5 | CC[N+]1=C(C=CC=C2N(CCCCCC(=O)N[C@@H](Cc3c[nH]c4ccccc34)C(=O)N[C@@H](CCCNC(=N)N)C(=O)N[C@@H](CCCNC(=N)N)C(=O)N[C@@H](CCCNC(=N)N)C(=O)N[C@@H](Cc3ccc(O)cc3)C(=O)N[C@@H](CCCNC(=N)N)C(=O)N[C@@H](CCCNC(=N)N)C(=O)N[C@@H](Cc3c[nH]c4ccccc34)C(=O)N[C@@H](CCCNC(=N)N)C(=O)N[C@@H](CCCNC(=N)N)C(=O)N[C@@H](CCCNC(=N)N)C(=O)N[C@@H](CCCNC(=N)N)C(=O)N[C@@H](CCCNC(=N)N)C(=O)N[C@@H](Cc3c[nH]c4ccccc34)C(=O)N[C@@H](CCCNC(=N)N)C(=O)N[C@@H](CCCNC(=N)N)C(=O)N[C@@H](CCCNC(=N)N)C(=O)N3CCC[C@H]3C(=O)N[C@@H](CCCNC(=N)N)C(=O)N[C@@H](CCCNC(=N)N)C(N)=O)c3ccccc3C2(C)C)C(C)(C)c2ccccc21 [Q570-vCPP2319] (X1-WRRRYRRWRRRRRWRRRPRR-NH2) |  | 1.14 ± 0.34 |  |  |  |  | 16 ± 1.94 | 4.26 ± 1.03
6 | KKRLKKIFKKPMVIGVTIPF-NH2 [Ctn[15-34]] |  | 4.76 ± 1.56 |  | >200 | >200 | >200 | > 200 | > 200
7 | CC[C@H](C)[C@H](NC(=O)[C@H](CCCCN)NC(=O)[C@H](CCCCN)NC(=O)[C@H](CC(C)C)NC(=O)[C@H](CCCNC(=N)N)NC(=O)[C@H](CCCCN)NC(=O)[C@H](CCCCN)NC(=O)CCCCCN1C(=CC=CC2=[N+](CC)c3ccccc3C2(C)C)C(C)(C)c2ccccc21)C(=O)N[C@@H](Cc1ccccc1)C(=O)N[C@@H](CCCCN)C(=O)N[C@@H](CCCCN)C(=O)N1CCC[C@H]1C(=O)N[C@@H](CCSC)C(=O)N[C@H](C(=O)N[C@H](C(=O)NCC(=O)N[C@H](C(=O)N[C@H](C(=O)N[C@H](C(=O)N1CCC[C@H]1C(=O)N[C@@H](Cc1ccccc1)C(N)=O)[C@@H](C)CC)[C@@H](C)O)C(C)C)[C@@H](C)CC)C(C)C [Q570-Ctn[15-34]] (X1-KKRLKKIFKKPMVIGVTIPF-NH2) |  | 3.08 ± 1.22 |  |  |  |  | > 200 | 144 ± 4.21
8 | TF3-KKRLKKIFKKPMVIGVTIPF-amide [TF3-Ctn[15-34]] | 123 ± 3.84 | 2.57 ± 1.37 | > 200 | 102.0 ± 6.20 | >200 | >200 |  | 
9 | CCN(CC)c1ccc2c(-c3ccccc3C(=O)N[C@@H](Cc3c[nH]c4ccccc34)C(=O)N[C@@H](CCCNC(=N)N)C(=O)N[C@@H](CCCNC(=N)N)C(=O)N[C@@H](CCCNC(=N)N)C(=O)N[C@@H](Cc3ccc(O)cc3)C(=O)N[C@@H](CCCNC(=N)N)C(=O)N[C@@H](CCCNC(=N)N)C(=O)N[C@@H](Cc3c[nH]c4ccccc34)C(=O)N[C@@H](CCCNC(=N)N)C(=O)N[C@@H](CCCNC(=N)N)C(=O)N[C@@H](CCCNC(=N)N)C(=O)N[C@@H](CCCNC(=N)N)C(=O)N[C@@H](CCCNC(=N)N)C(=O)N[C@@H](Cc3c[nH]c4ccccc34)C(=O)N[C@@H](CCCNC(=N)N)C(=O)N[C@@H](CCCNC(=N)N)C(=O)N[C@@H](CCCNC(=N)N)C(=O)N3CCC[C@H]3C(=O)N[C@@H](CCCNC(=N)N)C(=O)N[C@@H](CCCNC(=N)N)C(N)=O)c3ccc(=[N+](CC)CC)cc-3oc2c1 [RhB-vCPP2319] (RhodamineB-WRRRYRRWRRRRRWRRRPRR-NH2) |  | 1.13 ± 0.64 |  | 2.43 ± 0.32 | 23.88 ± 2.24 | >200 | 16.6 ± 1.31 | 4.11 ± 1.04
10 | CC[C@H](C)[C@H](NC(=O)[C@H](CCCCN)NC(=O)[C@H](CCCCN)NC(=O)[C@H](CC(C)C)NC(=O)[C@H](CCCNC(=N)N)NC(=O)[C@H](CCCCN)NC(=O)[C@H](CCCCN)NC(=O)c1ccc2c(c1)C(=O)OC21c2ccc(O)cc2Oc2cc(O)ccc21)C(=O)N[C@@H](Cc1ccccc1)C(=O)N[C@@H](CCCCN)C(=O)N[C@@H](CCCCN)C(=O)N1CCC[C@H]1C(=O)N[C@@H](CCSC)C(=O)N[C@H](C(=O)N[C@H](C(=O)NCC(=O)N[C@H](C(=O)N[C@H](C(=O)N[C@H](C(=O)N1CCC[C@H]1C(=O)N[C@@H](Cc1ccccc1)C(N)=O)[C@@H](C)CC)[C@@H](C)O)C(C)C)[C@@H](C)CC)C(C)C [CF-Ctn[15-34]] (5FAM-KKRLKKIFKKPMVIGVTIPF-NH2) |  | 4.23 ± 1.02 |  | >200 | >200 | >200 | > 200 | > 200
